Experimental data published in patent publication US20230148226A1, “COMPOSITIONS OF STABLE FORMULATIONS OF VARENICLINE SALT OR BASE FORM WITH CONTROL ON NITROSO IMPURITIES” (The Texas A&M University System, priority 2021, published 2023).

assay: N-Nitroso-varenicline content in individual component (LCMS); type: physicochemical; details: not given
Experimental: Liquid chromatography—mass spectrometry (LCMS) method development for NVC. Ultra-pressure liquid chromatography (UPLC) was used to detect NVC in samples. An ACQUITY™ UPLC™ H-Class PLUS System was utilized with the following configuration. The needle was washed with 80:20 methanol:water and the sample temperature was 10° C. The injection volume was 25 μL and a WATERS™ Acquity UPLC BEH Phenyl 1.7 μm 2.1×100 mm column was used having a column temperature of 30° C. Mobile phase A was 0.1% formic acid in water, and mobile phase B was acetonitrile. A 0.5 mL/min flow rate was utilized. Table 1 and Table 2, shown below, illustrate gradient method parameters and LCMS method validation for NVC, respectively.
Screening excipients for varenicline. Excipients were screened to determine which excipients were promoting nitroso impurities. Varenicline and excipients were physically mixed in 1:1 weight ratio and exposed to 40° C./75% RH for 4 weeks (Table 3 and Table 4).

Row | Compound | N-Nitroso-varenicline
1 | 7,8,9,10-tetrahydro-6,10-methano-6H-pyrazino(2,3-h)(3)benzazepinex [Varenicline Tartrate, reference compound] | 0 ng
2 | O.OC[C@H]1O[C@@H](O[C@H]2[C@H](O)[C@@H](O)C(O)O[C@@H]2CO)[C@H](O)[C@@H](O)[C@H]1O (stereo partly drawn) [Lactose Monohydrate] | 0 ng
3 | Magnesium Stearate | 0 ng

assay: not given; details: FDA recommended limit; cited from earlier work

Row | Compound | Acceptable daily intake limit (FDA)
4 | CCN(CC)N=O [NDEA, N-nitrosodiethylamine] | 26.5 ng/day
5 | CC(C)N(N=O)C(C)C [NDIPA, N-nitrosodiisopropylamine] | 26.5 ng/day
6 | CN(C)N=O [NDMA, N-nitrosodimethylamine] | 96 ng/day
7 | CCN(N=O)C(C)C [NIPEA, N-nitrosoisopropylethyl amine] | 26.5 ng/day
8 | CN(CCCC(=O)O)N=O [NMBA, N-nitroso-N-methyl-4-aminobutanoic acid] | 96 ng/day
9 | O=NN1CC2CC(C1)c1cc3nccnc3cc12 [NVC, N-nitroso-varenicline] | 37 ng/day
